SMILES strings stand for the structures. Entries after “also recorded” stand apart in the source; their conditions may differ.

The results in this text go back to paper PMC8569887 (Journal of medicinal chemistry, 2021).

Series [1] concerns QBI293 cells. Briefly: Cytotoxicity in rapidly dividing QBI293 cells. In kind it is cell-based. Particulars: values in Supporting Information.
For series [2], the system named is HeLa cells. Briefly: Cytotoxicity in rapidly dividing HeLa cells. In kind it is cell-based. Particulars: values in Supporting Information.
Series [3] relates to primary rat cortical neurons (axonal AcTub staining). It counts as cell-based. Particulars: 1 μM compound; for AcTub staining and axonal processes upon co-addition with okadaic acid: +OA (15 nM, 8 hours); for axonal acetyl-tubulin staining in the absence of OA: relative to vehicle.
For series [4], the system named is primary mouse cortical neurons (AcTub levels). Nature of the series: AcTub ELISA in primary mouse cortical neurons treated with okadaic acid. In kind it is cell-based. Particulars: 10 μM (higher concentration). In general terms: In an ELISA, binding on a coated surface is turned into a signal by an enzyme label.
Series [5] in a line: Brain and plasma pharmacokinetics after i.p. dosing. It counts as in vivo. Particulars: CD1 mice.

Take `CC(C)[C@H](Nc1c(-c2c(F)cc(F)cc2F)c(Cl)nc2ncnn12)C(F)(F)F` [Compound 47, (S)-5-Chloro-N-(1,1,1-trifluoro-3-methylbutan-2-yl)-6-(2,4,6-trifluorophenyl)-[1,2,4]triazolo[1,5-a]pyrimidin-7-amine]: the “cytotoxicity IC50, side-by-side comparison of enantiomers” value in series [1] and in series [2] was “did not reveal significant differences in IC50 values” in each case.
As to `C[C@@H](Nc1c(-c2c(F)cc(C#N)cc2F)c(Cl)nc2ncnn12)C(C)(C)C` [Compound 69, (R)-4-(5-Chloro-7-((3,3-dimethylbutan-2-yl)amino)-[1,2,4]triazolo[1,5-a]pyrimidin-6-yl)-3,5-difluorobenzonitrile], in series [3], the “AcTub staining and axonal processes upon co-addition with okadaic acid” value is “protects the MT network from okadaic acid-induced collapse; also recorded: normalization of AcTub staining and axonal processes”; the “axonal acetyl-tubulin staining in the absence of OA” value is given as “increased axonal acetyl-tubulin staining”. Also, the “AcTub levels in neuron homogenates in the presence of OA” value in series [4] is recorded as “AcTub levels comparable to those in neurons without OA treatment”. Moreover, the “metabolic stability from plasma PK compared with lead compound 3” value in series [5] (i.p. dosing, compared to 3) is “greater metabolic stability”. Also, in series [5] (i.p. injection), the “clearance compared to 3” value is “reduced clearance” and the “plasma half-life compared to 3” value is “increased plasma half-life”.
Consider `CC(C)[C@@H](C)Nc1c(-c2c(F)cc(F)cc2F)c(Cl)nc2ncnn12` [Compound 3, reference compound], for which, in series [3], the “AcTub staining and axonal processes upon co-addition with okadaic acid” value is “normalization of AcTub staining and axonal processes”; the “axonal acetyl-tubulin staining in the absence of OA” value is “increased axonal acetyl-tubulin staining”.
With `CC(C)[C@@H](Nc1c(-c2c(F)cc(F)cc2F)c(Cl)nc2ncnn12)C(F)(F)F` [Compound 46, (R)-5-Chloro-N-(1,1,1-trifluoro-3-methylbutan-2-yl)-6-(2,4,6-trifluorophenyl)-[1,2,4]triazolo[1,5-a]pyrimidin-7-amine], the “cytotoxicity IC50, side-by-side comparison of enantiomers” value in series [1] and in series [2] was “did not reveal significant differences in IC50 values” each time.
